# Results reported in paper PMC8841438 (Clinical and Translational Science, 2021).
# Assays:
# [1] = tested on: organic anion transporting polypeptide 1B1; conditions: in vitro; cited from earlier work
# P‐gp = conditions: in vitro; at clinically relevant concentrations; cited from earlier work
# [2] = cited from earlier work
# [3] = tested on: organic anion transporter 4; conditions: in vitro; at clinically relevant concentrations; cited from earlier work
# [4] = tested on: organic anion transporter 1; conditions: in vitro; at clinically relevant concentrations; cited from earlier work
# cytochrome P450 enzymes = conditions: cited from earlier work
# [5] = biological target: T1, organic cation transporter 2 (OCT2) (Homo sapiens, UniProt O15244); experiment: In vitro transporter inhibition: OCT2; type: in vitro ADME; conditions: data on file at Gilead Sciences, Inc.
# T1 sequence (O15244 1-555): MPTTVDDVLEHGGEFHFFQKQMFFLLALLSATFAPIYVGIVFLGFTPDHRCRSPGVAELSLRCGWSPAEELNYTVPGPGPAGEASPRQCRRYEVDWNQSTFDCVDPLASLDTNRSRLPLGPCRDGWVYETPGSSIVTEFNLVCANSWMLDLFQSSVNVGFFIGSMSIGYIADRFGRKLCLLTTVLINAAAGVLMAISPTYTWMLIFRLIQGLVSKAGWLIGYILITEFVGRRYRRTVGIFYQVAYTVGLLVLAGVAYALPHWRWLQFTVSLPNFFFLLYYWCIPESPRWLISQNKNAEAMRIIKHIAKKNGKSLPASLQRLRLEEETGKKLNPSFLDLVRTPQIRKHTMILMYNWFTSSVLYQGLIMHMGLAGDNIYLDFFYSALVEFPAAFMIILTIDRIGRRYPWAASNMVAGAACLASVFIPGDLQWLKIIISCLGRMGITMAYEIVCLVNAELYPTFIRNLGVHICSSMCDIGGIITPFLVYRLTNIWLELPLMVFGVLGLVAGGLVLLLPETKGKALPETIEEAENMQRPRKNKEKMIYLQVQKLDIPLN
structure (smiles),measurement,setting,value
O=C(Nc1nc2cccc(-c3ccc(CN4CCS(=O)(=O)CC4)cc3)n2n1)C1CC1 [Filgotinib],inhibition of OATP1B1,[1],inhibited
same,inhibition of P‐gp,P‐gp,not inhibitors
same,accumulation following multiple doses,[2],no accumulation
same,time to steady‐state concentrations,[2],~ 2 days
same,linearity of pharmacokinetics,"[2]; from 50 to 200 mg, dose proportional and time‐independent",linear
same,inhibition of organic anion transporter 4,[3],not inhibitors
same,inhibition of organic anion transporter 1,[4],not inhibitors
same,drug‐drug interactions (DDIs) liability with cytochrome P450 enzymes,cytochrome P450 enzymes; in vitro and in vivo data,relatively low
same,substrate of the cytochrome P450 enzymes,"cytochrome P450 enzymes; in vitro data, no reference given",not a substrate
same,inhibition of OCT2 (in words),[5]; in vitro data,may inhibit
same,ratio of maximum unbound plasma concentration over in vitro IC50 against OCT2,[5]; patients with rheumatoid arthritis,0.26
